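Abbreviation: GI50, concentration required for 50% inhibition of growth. Definition used: TGI = concentration required for complete inhibition of growth.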
Columns and labels:
Test in all cases: growth of human tumour cells (NCI), 384-well format
786-0 renal = system: 786-0 renal
A498 renal = system: A498 renal
A549 NSCLC = system: A549 NSCLC
ACHN renal = system: ACHN renal
BT-549 breast = system: BT-549 breast
CAKI-1 renal = system: CAKI-1 renal
CCRF-CEM leukemia = system: CCRF-CEM leukemia
COLO 205 colon = system: COLO 205 colon
DU-145 prostate = system: DU-145 prostate
EKVX NSCLC = system: EKVX NSCLC
HCC-2998 colon = system: HCC-2998 colon
HCT-116 colon = system: HCT-116 colon
HCT-15 colon = system: HCT-15 colon
HL-60(TB) leukemia = system: HL-60(TB) leukemia
HOP-62 NSCLC = system: HOP-62 NSCLC
HOP-92 NSCLC = system: HOP-92 NSCLC
HT29 colon = system: HT29 colon
IGROV1 ovarian = system: IGROV1 ovarian
K-562 leukemia = system: K-562 leukemia
KM12 colon = system: KM12 colon
LOX IMVI melanoma = system: LOX IMVI melanoma
M14 melanoma = system: M14 melanoma
MALME-3M melanoma = system: MALME-3M melanoma
MCF7 breast = system: MCF7 breast
MDA-MB-231 breast = system: MDA-MB-231 breast
MDA-MB-435 melanoma = system: MDA-MB-435 melanoma
MDA-MB-468 breast = system: MDA-MB-468 breast
MOLT-4 leukemia = system: MOLT-4 leukemia
NCI-H226 lung = system: NCI-H226 lung
NCI-H23 lung = system: NCI-H23 lung
NCI-H322M lung = system: NCI-H322M lung
NCI-H460 NSCLC = system: NCI-H460 NSCLC
NCI-H522 lung = system: NCI-H522 lung
NCI/ADR-RES ovarian = system: NCI/ADR-RES ovarian
OVCAR-3 ovarian = system: OVCAR-3 ovarian
OVCAR-4 ovarian = system: OVCAR-4 ovarian
OVCAR-5 ovarian = system: OVCAR-5 ovarian
OVCAR-8 ovarian = system: OVCAR-8 ovarian
PC-3 prostate = system: PC-3 prostate
RPMI-8226 leukemia = system: RPMI-8226 leukemia
RXF 393 renal = system: RXF 393 renal
SF-268 CNS = system: SF-268 CNS
SF-295 CNS = system: SF-295 CNS
SF-539 CNS = system: SF-539 CNS
SK-MEL-2 melanoma = system: SK-MEL-2 melanoma
SK-MEL-28 melanoma = system: SK-MEL-28 melanoma
SK-MEL-5 melanoma = system: SK-MEL-5 melanoma
SK-OV-3 ovarian = system: SK-OV-3 ovarian
SN12C renal = system: SN12C renal
SNB-19 CNS = system: SNB-19 CNS
SNB-75 CNS = system: SNB-75 CNS
SR leukemia = system: SR leukemia
SW-620 colon = system: SW-620 colon
T-47D breast = system: T-47D breast
TK-10 renal = system: TK-10 renal
U251 glioblastoma = system: U251 glioblastoma
UACC-257 melanoma = system: UACC-257 melanoma
UACC-62 melanoma = system: UACC-62 melanoma
UO-31 renal = system: UO-31 renal

## Cc1nn(C)c(COc2ccc(N3CCN(S(=O)(=O)N(C)C)CC3)cc2)c1-c1cccc2c(CCCOc3cccc4ccccc34)c(C(=O)O)n(CCN3CCOCC3)c12
786-0 renal
  GI50: 5.67 µM
  TGI: 13.8 µM
A498 renal
  GI50: 3.63 µM
  TGI: 11.1 µM
A549 NSCLC
  GI50: 9.44 µM
  TGI: 23.3 µM
ACHN renal
  GI50: 6.55 µM
  TGI: 17.6 µM
BT-549 breast
  GI50: 3.49 µM
  TGI: 8.64 µM
CAKI-1 renal
  GI50: 6.88 µM
  TGI: 17.6 µM
CCRF-CEM leukemia
  GI50: 2.41 µM
  TGI: 4.78 µM
COLO 205 colon
  GI50: 4.33 µM
  TGI: 13.3 µM
DU-145 prostate
  GI50: 6.23 µM
  TGI: 16.2 µM
EKVX NSCLC
  GI50: 4.87 µM
  TGI: 16.7 µM
HCC-2998 colon
  GI50: 3.09 µM
  TGI: 7.88 µM
HCT-116 colon
  GI50: 2.87 µM
  TGI: 8.51 µM
HCT-15 colon
  GI50: 12.1 µM
  TGI: 25.5 µM
HL-60(TB) leukemia
  GI50: 2.12 µM
  TGI: 3.58 µM
HOP-62 NSCLC
  GI50: 4.22 µM
  TGI: 11.3 µM
HOP-92 NSCLC
  GI50: 3.32 µM
  TGI: 8.76 µM
HT29 colon
  GI50: 2.72 µM
  TGI: 7.13 µM
IGROV1 ovarian
  GI50: 3.11 µM
  TGI: 8.58 µM
K-562 leukemia
  GI50: 4.21 µM
  TGI: 13.8 µM
KM12 colon
  GI50: 4.51 µM
  TGI: 12.2 µM
LOX IMVI melanoma
  GI50: 5.6 µM
  TGI: 13.5 µM
M14 melanoma
  GI50: 4.13 µM
  TGI: 9.35 µM
MALME-3M melanoma
  GI50: 3.73 µM
  TGI: 10.5 µM
MCF7 breast
  GI50: 3.06 µM
  TGI: 8.69 µM
MDA-MB-231 breast
  GI50: 4.49 µM
  TGI: 13.3 µM
MDA-MB-435 melanoma
  GI50: 4.32 µM
  TGI: 14.6 µM
MDA-MB-468 breast
  GI50: 2.3 µM
  TGI: 4.43 µM
MOLT-4 leukemia
  GI50: 2.02 µM
  TGI: 3.66 µM
NCI-H226 lung
  GI50: 3.65 µM
  TGI: 10.3 µM
NCI-H23 lung
  GI50: 3.54 µM
  TGI: 9.43 µM
NCI-H322M lung
  GI50: 6.07 µM
  TGI: 14.6 µM
NCI-H460 NSCLC
  GI50: 5.22 µM
  TGI: 14.9 µM
NCI-H522 lung
  GI50: 2.64 µM
  TGI: 5.42 µM
NCI/ADR-RES ovarian
  GI50: 32.8 µM
  TGI: > 92.7 µM
OVCAR-3 ovarian
  GI50: 2.32 µM
  TGI: 5.26 µM
OVCAR-4 ovarian
  GI50: 3.43 µM
  TGI: 9.25 µM
OVCAR-5 ovarian
  GI50: 5.75 µM
  TGI: 16.2 µM
OVCAR-8 ovarian
  GI50: 3.73 µM
  TGI: 12.9 µM
PC-3 prostate
  GI50: 3.72 µM
  TGI: 10.9 µM
RPMI-8226 leukemia
  GI50: 1.76 µM
  TGI: 3.16 µM
RXF 393 renal
  GI50: 1.79 µM
  TGI: 5.04 µM
SF-268 CNS
  GI50: 5.48 µM
  TGI: 15.2 µM
SF-295 CNS
  GI50: 2.94 µM
  TGI: 7.54 µM
SF-539 CNS
  GI50: 3.57 µM
  TGI: 9.98 µM
SK-MEL-2 melanoma
  GI50: 2.14 µM
  TGI: 3.92 µM
SK-MEL-28 melanoma
  GI50: 3.07 µM
  TGI: 7.47 µM
SK-MEL-5 melanoma
  GI50: 2.92 µM
  TGI: 7.26 µM
SK-OV-3 ovarian
  GI50: 5.61 µM
  TGI: 13.6 µM
SN12C renal
  GI50: 3.55 µM
  TGI: 12.7 µM
SNB-19 CNS
  GI50: 3.77 µM
  TGI: 12.8 µM
SNB-75 CNS
  GI50: 3.52 µM
  TGI: 8.36 µM
SR leukemia
  GI50: 1.57 µM
  TGI: 2.93 µM
SW-620 colon
  GI50: 3.46 µM
  TGI: 10.6 µM
T-47D breast
  GI50: 3.6 µM
  TGI: 10.8 µM
TK-10 renal
  GI50: 4.94 µM
  TGI: 14.1 µM
U251 glioblastoma
  GI50: 3.67 µM
  TGI: 11.8 µM
UACC-257 melanoma
  GI50: 2.99 µM
  TGI: 7.34 µM
UACC-62 melanoma
  GI50: 2.67 µM
  TGI: 5.65 µM
UO-31 renal
  GI50: 9.73 µM
  TGI: 21.5 µM
